Experimental findings from ChEMBL document CHEMBL4406816, “Role of sulphur-heterocycles in medicinal chemistry: An update” (Eur J Med Chem, 2019) are described below.

Usually MIC stands for the lowest concentration found to suppress growth. The low end stands for greater potency, the high end for weaker potency.

In brackets after ≈: the same amount, converted by molar mass.

The assay concerns Mycobacterium tuberculosis. The assay is described as follows: Antitubercular activity against multidrug resistant Mycobacterium tuberculosis. The format is functional.

The compound `O=C(N/N=C/c1ccc([N+](=O)[O-])cc1)[C@H]1CSC(c2ccc(F)cc2)N1` (stereo partly specified) yielded an MIC of 1.33 µM (≈ 0.498 µg/mL). That is a single-digit micromolar value.
